These compounds were tested against T1, purified recombinant human PARP (Homo sapiens, UniProt P09874) (assay: PARP enzyme assay (IC50), [3H]NAD incorporation). Settings: approximate IC50 values; 25° C., 15 minutes.
T1 construct: purchased Trevigan (Gaithersburg, Md.)
T1 sequence (P09874 whole entry): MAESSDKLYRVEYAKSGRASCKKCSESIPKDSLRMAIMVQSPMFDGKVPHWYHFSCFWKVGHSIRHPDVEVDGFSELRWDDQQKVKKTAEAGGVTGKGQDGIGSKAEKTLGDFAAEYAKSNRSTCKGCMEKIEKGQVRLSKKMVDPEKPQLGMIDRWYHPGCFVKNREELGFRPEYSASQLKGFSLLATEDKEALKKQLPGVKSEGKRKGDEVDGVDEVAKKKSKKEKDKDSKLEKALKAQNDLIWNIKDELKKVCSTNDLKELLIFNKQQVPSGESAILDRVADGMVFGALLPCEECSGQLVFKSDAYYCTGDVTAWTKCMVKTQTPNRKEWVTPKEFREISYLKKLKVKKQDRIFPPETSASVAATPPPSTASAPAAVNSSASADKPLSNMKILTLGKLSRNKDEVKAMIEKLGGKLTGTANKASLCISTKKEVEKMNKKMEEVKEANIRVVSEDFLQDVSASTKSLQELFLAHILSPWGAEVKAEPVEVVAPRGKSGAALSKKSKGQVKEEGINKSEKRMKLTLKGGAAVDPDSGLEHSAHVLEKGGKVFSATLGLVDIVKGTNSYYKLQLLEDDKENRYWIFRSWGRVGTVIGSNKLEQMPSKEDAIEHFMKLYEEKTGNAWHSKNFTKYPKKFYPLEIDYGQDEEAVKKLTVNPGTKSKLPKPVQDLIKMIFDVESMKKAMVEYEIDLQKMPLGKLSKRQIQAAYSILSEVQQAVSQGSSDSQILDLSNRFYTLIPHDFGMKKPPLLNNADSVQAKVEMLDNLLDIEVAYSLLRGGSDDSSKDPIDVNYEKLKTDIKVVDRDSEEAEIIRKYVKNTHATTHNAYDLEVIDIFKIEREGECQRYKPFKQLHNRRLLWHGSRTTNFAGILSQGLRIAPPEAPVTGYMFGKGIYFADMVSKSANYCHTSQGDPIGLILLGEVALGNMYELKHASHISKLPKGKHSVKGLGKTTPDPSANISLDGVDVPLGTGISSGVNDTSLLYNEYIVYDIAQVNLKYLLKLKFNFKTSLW
Assay type: biochemical
Procedure: The reaction is initiated by incubating the mixture at 25° C. After 15 minutes of incubation. the reaction is terminated by adding 500 microliters of ice cold 20% (w/v) trichloroacetic acid. The precipitate formed is transferred onto a glass fiber filter (Packard Unifilter-GF/B) and washed three times with ethanol. After the filter is dried, the radioactivity is determined by scintillation counting.
`Cc1cc2[nH]c(=O)c3ccccc3c2cc1NC(=O)C(C)Br` (stereo not drawn) [Compound 63] showed an IC50 of 174 nM. With `O=C(NC(Cc1ccc2ccccc2c1)C(=O)O)c1ccc2c(c1)[nH]c(=O)c1ccccc12` (stereo not drawn) [Compound 42] the IC50 was 19 nM. Compound `Cc1ccc(S(=O)(=O)Nc2cc3c(cc2C)[nH]c(=O)c2ccccc23)cc1` [Compound 56] has an IC50 of 5900 nM. Work on `O=c1[nH]c2ccc(S(=O)(=O)NC3CN4CCC3CC4)cc2c2ccccc12` (stereo not drawn) [Compound 64] yielded an IC50 of 43 nM. Compound `COC(=O)c1ccc2c(c1)[nH]c(=O)c1cc(F)ccc12` [Compound 48] has an IC50 of 37 nM. In the case of `O=C(NCCN1CCOCC1)c1ccc2c(c1)[nH]c(=O)c1ccccc12` [Compound 9], the IC50 is reported as 40 nM. Work on `COC(=O)C1CCCN1S(=O)(=O)c1ccc2[nH]c(=O)c3ccccc3c2c1` (stereo not drawn) [Compound 58] yielded an IC50 of 1100 nM. With `CN1CCN(S(=O)(=O)c2ccc3c(c2)[nH]c(=O)c2cc(F)ccc23)CC1` [Compound 43] the IC50 was 108 nM. For `O=c1[nH]c2ccc(S(=O)(=O)NCCN3CCOCC3)cc2c2ccccc12` [Compound 4], the IC50 was 140 nM. `O=C(NCCc1ccccc1)c1ccc2c(c1)[nH]c(=O)c1cc(F)ccc12` [Compound 18] was tested, and the IC50 was 150 nM. `Cc1cc2[nH]c(=O)c3ccccc3c2cc1NC(=O)CCc1ccccc1` [Compound 59] showed an IC50 of 7500 nM. `CCCCC(NC(=O)c1ccc2c(c1)[nH]c(=O)c1ccccc12)C(=O)O` (stereo not drawn) [Compound 29] was tested, and the IC50 was 54 nM. Work on `NCCCC[C@H](NC(=O)c1ccc2c(c1)[nH]c(=O)c1ccccc12)C(=O)O` [Compound 37] yielded an IC50 of 88 nM. With `O=C(O)[C@H]1CCCN1C(=O)c1ccc2c(c1)[nH]c(=O)c1ccccc12` [Compound 10] the IC50 was 90 nM. In the case of `Cc1cc2[nH]c(=O)c3ccccc3c2cc1NC(=O)c1cccc(F)c1` [Compound 52], the IC50 is reported as 1200 nM. With `Cc1cc2[nH]c(=O)c3ccccc3c2cc1NC(=O)CCl` [Compound 47] the IC50 was 152 nM. In the case of `O=C(O)CCC(=O)Nc1ccc2[nH]c(=O)c3ccccc3c2c1` [Compound 27], the IC50 is reported as 111 nM. `CC(=O)NCCN1CCN(S(=O)(=O)c2ccc3[nH]c(=O)c4ccccc4c3c2)CC1` [Compound 68] showed an IC50 of 142 nM. In the case of `CC(=O)Nc1cc2c(cc1C)[nH]c(=O)c1ccccc12` [Compound 45], the IC50 is reported as 229 nM. `O=C(N[C@@H](Cc1ccccc1)C(=O)O)c1ccc2c(c1)[nH]c(=O)c1ccccc12` [Compound 34] showed an IC50 of 65 nM. Work on `O=C(O)CCC(NC(=O)c1ccc2c(c1)[nH]c(=O)c1ccccc12)C(=O)O` (stereo not drawn) [Compound 25] yielded an IC50 of 272 nM. With `O=C(NCCCc1ccccc1)c1ccc2c(c1)[nH]c(=O)c1cc(F)ccc12` [Compound 57] the IC50 was 415 nM. Work on `NCCCCC(NC(=O)c1ccc2c(c1)[nH]c(=O)c1ccccc12)C(=O)O` (stereo not drawn) [Compound 28] yielded an IC50 of 341 nM. `COc1ccc(S(=O)(=O)Nc2cc3c(cc2C)[nH]c(=O)c2ccccc23)cc1` [Compound 60] was tested, and the IC50 was 11500 nM. `Cc1cccc2c(=O)[nH]c3cc(C(F)(F)F)c(NC(=O)CCl)cc3c12` [Compound 20] was tested, and the IC50 was 33 nM. Compound `O=c1[nH]c2ccc(S(=O)(=O)N3CCCC(CO)C3)cc2c2ccccc12` (stereo not drawn) [Compound 67] has an IC50 of 164 nM. `CCC(C)C(NC(=O)c1ccc2c(c1)[nH]c(=O)c1ccccc12)C(=O)O` (stereo not drawn) [Compound 26] showed an IC50 of 711 nM. `O=C(NCCOCCO)c1ccc2c(c1)[nH]c(=O)c1ccccc12` [Compound 50] gave an IC50 of 80 nM. In the case of `O=C(Nc1ccc2[nH]c(=O)c3ccccc3c2c1)c1ccc(F)cc1` [Compound 31], the IC50 is reported as 69 nM. In the case of `O=c1[nH]c2cc(S(=O)(=O)NCCN3CCOCC3)ccc2c2ccc(F)cc12` [Compound 44], the IC50 is reported as 19 nM. `O=c1[nH]c2ccc(S(=O)(=O)NCCN3CCCC3)cc2c2ccccc12` [Compound 53] was tested, and the IC50 was 74 nM. In the case of `Cc1cc2[nH]c(=O)c3ccccc3c2cc1NC(=O)C[N+](C)(C)C` [Compound 54], the IC50 is reported as 195 nM. For `Cc1cc2[nH]c(=O)c3ccccc3c2cc1NC(=O)Cc1ccc(F)cc1` [Compound 62], the IC50 was 449 nM. `C[N+](C)(C)CC(=O)Nc1ccc2[nH]c(=O)c3ccccc3c2c1` [Compound 7] showed an IC50 of 30 nM. In the case of `O=C(c1ccc2c(c1)[nH]c(=O)c1ccccc12)N1CCOCC1` [Compound 2], the IC50 is reported as 100000 nM. `CC(C)[C@H](NC(=O)c1ccc2c(c1)[nH]c(=O)c1ccccc12)C(=O)O` [Compound 39] gave an IC50 of 25 nM. `O=C(N[C@@H](CS)C(=O)O)c1ccc2c(c1)[nH]c(=O)c1ccccc12` [Compound 35] was tested, and the IC50 was 83 nM. Compound `CC(NC(=O)c1ccc2c(c1)[nH]c(=O)c1ccccc12)C(=O)O` (stereo not drawn) [Compound 24] has an IC50 of 56 nM. Compound `CC(C)N(C(=O)c1ccc2c(c1)[nH]c(=O)c1ccccc12)C(C)C` [Compound 66] has an IC50 of 99 nM. With `O=C(O)[C@@H]1CCCN1C(=O)c1ccc2c(c1)[nH]c(=O)c1cc(F)ccc12` [Compound 21] the IC50 was 124 nM. Compound `O=c1[nH]c2ccc(S(=O)(=O)NCc3ccncc3)cc2c2ccccc12` [Compound 55] has an IC50 of 94 nM. `O=C(NC(CO)C(=O)O)c1ccc2c(c1)[nH]c(=O)c1ccccc12` (stereo not drawn) [Compound 30] was tested, and the IC50 was 83 nM. With `COC(=O)[C@@H]1CCCN1C(=O)c1ccc2c(c1)[nH]c(=O)c1ccccc12` [Compound 41] the IC50 was 118 nM. `C[C@H](NC(=O)c1ccc2c(c1)[nH]c(=O)c1ccccc12)C(=O)O` [Compound 32] was tested, and the IC50 was 36 nM. `COC(=O)[C@@H]1CCCN1C(=O)c1ccc2c(c1)[nH]c(=O)c1cc(F)ccc12` [Compound 19] gave an IC50 of 157 nM. Work on `O=C(N[C@@H](Cc1ccc(F)cc1)C(=O)O)c1ccc2c(c1)[nH]c(=O)c1ccccc12` [Compound 33] yielded an IC50 of 45 nM. Work on `O=c1[nH]c2ccc(S(=O)(=O)NCCN(CCO)CCO)cc2c2ccccc12` [Compound 8] yielded an IC50 of 60 nM. With `O=c1[nH]c2ccc(S(=O)(=O)O)cc2c2ccccc12` [Compound 22] the IC50 was 115 nM. `Cc1ccc(S(=O)(=O)Nc2ccc3[nH]c(=O)c4ccccc4c3c2)cc1` [Compound 1] gave an IC50 of 120 nM. Compound `O=C(NCCN1CCOCC1)c1ccc2c(c1)[nH]c(=O)c1ccccc12` [Compound 40] has an IC50 of 35 nM. `NCCN1CCN(S(=O)(=O)c2ccc3[nH]c(=O)c4ccccc4c3c2)CC1` [Compound 51] was tested, and the IC50 was 99 nM. For `O=C(c1ccc(F)cc1)C1CCN(S(=O)(=O)c2ccc3[nH]c(=O)c4ccccc4c3c2)CC1` [Compound 61], the IC50 was 319 nM. Work on `CCOC(=O)C1CCN(S(=O)(=O)c2ccc3[nH]c(=O)c4ccccc4c3c2)CC1` [Compound 65] yielded an IC50 of 200 nM. Work on `O=C(CCl)Nc1ccc2[nH]c(=O)c3ccccc3c2c1` [Compound 5] yielded an IC50 of 80 nM. `O=C(NCc1ccccc1)c1ccc2c(c1)[nH]c(=O)c1cc(F)ccc12` [Compound 16] was tested, and the IC50 was 399 nM. Work on `O=C(N[C@H](C(=O)O)c1ccccc1)c1ccc2c(c1)[nH]c(=O)c1ccccc12` [Compound 38] yielded an IC50 of 31 nM.

Each compound was assayed on male Long-Evans rats (assay: Focal cerebral ischemia (MCA cauterization with temporary bilateral CCA occlusion)). Settings: 5 mg/kg i.p. 2 h before and 2 h after MCA occlusion; 24 h; mean±SD; control 165.2±34.0; p<0.001.
Assay type: in vivo, rat
Procedure: Focal cerebral ischemia is produced by cauterization of the right distal MCA (middle cerebral artery) with bilateral temporary common carotid artery occlusion in male Long-Evans rats for 90 minutes. All procedures performed on the animals are approved by the University Institutional Animal Care and Use Committee of the University of Pennsylvania. A total of 42 rats (weights: 230-340 g) obtained from Charles River were used in this study. The animals fasted overnight with free access to water prior to the surgical procedure
Two hours prior to MCA occlusion, varying amounts (control, n=14; 5 mg/kg, n=7; 10 mg/kg, n=7; 20 mg/kg, n=7; and 40 mg/kg, n=7) of the compound, 3,4-dihydro-5-[4-(1-piperidinyl)-butoxy]-1(2H)-isoquinolinone (“DPQ”) were dissolved in dimethyl sulfoxide (DMSO) using a sonicator. A volume of 1.28 ml/kg of the resulting solution was injected intraperitoneally into […].
The rats were then anesthetized with halothane (4% for induction and 0.8%-1.2% for the surgical procedure) in a mixture of 70% nitrous oxide and 30% oxygen. The body temperature was monitored by a rectal probe and maintained at 37.5±0.5° C. with a heating blanket regulated by a homeothermic blanket control unit (Harvard Apparatus Limited, Kent, U.K.). A catheter (PE-50) was placed into the tail artery, and arterial pressure was continuously monitored and recorded on a Grass polygraph recorder (Model 7D, Grass Instruments, Quincy, Mass.). Samples for blood gas analysis (arterial pH, PaO2 and PaCO2) were also taken from the tail artery catheter and measured with a blood gas analyzer (ABL 30, Radiometer, Copenhagen, Denmark). Arterial blood samples were obtained 30 minutes after MCA occlusion.
The head of the animal was positioned in a stereotaxic frame, and a right parietal incision between the right lateral canthus and the external auditory meatus was made. Using a dental drill constantly cooled with saline, a 3 mm burr hole was prepared over the cortex supplied by the right MCA, 4 mm lateral to the sagittal suture and 5 mm caudal to the coronal suture. The dura mater and a thin inner bone layer were kept, care being taken to position the probe over a tissue area devoid of large blood vessels. The flow probe (tip diameter of 1 mm, fiber separation of 0.25 mm) was lowered to the bottom of the cranial burr hole using a micromanipulator. The probe was held stationary by a probe holder secured to the skull with dental cement. The microvascular blood flow in the right parietal cortex was continuously monitored with a laser Doppler flowmeter (FloLab, Moor, Devon, U.K., and Periflux 4001, Perimed, Stockholm, Sweden). […]
For `O=C1NCCc2c(OCCCCN3CCCCC3)cccc21` [DPQ, 3,4-dihydro-5-[4-(1-piperidinyl)-butoxy]-1(2H)-isoquinolinone], the “damaged volume (total volume of infarction)” value (“damaged volume” for short) was 106.7±23.2 mm^3.

Same assay, conditions: 10 mg/kg i.p. 2 h before and 2 h after MCA occlusion; 24 h; mean±SD; control 165.2±34.0 mm^3; p<0.001
`O=C1NCCc2c(OCCCCN3CCCCC3)cccc21` [DPQ, 3,4-dihydro-5-[4-(1-piperidinyl)-butoxy]-1(2H)-isoquinolinone] was tested, and the “damaged volume” value was 76.4±16.8 mm.

Same assay, conditions: 20 mg/kg i.p. 2 h before and 2 h after MCA occlusion; 24 h; mean±SD; control 165.2±34.0; p<0.01
With `O=C1NCCc2c(OCCCCN3CCCCC3)cccc21` [DPQ, 3,4-dihydro-5-[4-(1-piperidinyl)-butoxy]-1(2H)-isoquinolinone] the “damaged volume” value was 110.2±42.0 mm^3.

Same assay, conditions: 40 mg/kg i.p. 2 h before and 2 h after MCA occlusion; 24 h; mean±SD; no significant difference from control 165.2±34.0
For `O=C1NCCc2c(OCCCCN3CCCCC3)cccc21` [DPQ, 3,4-dihydro-5-[4-(1-piperidinyl)-butoxy]-1(2H)-isoquinolinone], the “damaged volume” value was 135.6±44.8 mm^3.

Source: US6723733B2, “Sulfonamide and carbamide derivatives of 6(5H)phenanthridinones and their uses” (Guilford Pharmaceuticals, Inc., priority 2000, dated 2004)
